Measured values from US7608246B2 (The Brigham and Women's Hospital, Inc., priority 2005, dated 2009).

Experiments:
[1] = tested on: CD1b-restricted T cell line LDN5; test: CD1b restricted T cell response to mycobacterial lipid antigens with or without apoE; format: cell-based; conditions: versus without apoE
From the text: D) Enhancement of a CD1b dependent T cell response against foreign antigens.

αGC reactive T cells = test: ApoE enhancement of GGC reactivity: DC pulsed, co-cultured with αGC reactive T cells, IFNγ ELISA; format: cell-based, human; conditions: for increase of antigenic potency of GGC: compared to freshly sonicated free GGC or GGC with HDL, LDL or albumin
Procedure: Sonicated GGC was incubated with the indicated components in serum-free media with 4 mg/ml bovine serum albumin (BSA) as a carrier for 1-2 hours (or freshly sonicated) before pulsing DC and co-culturing with αGC reactive T cells in media supplemented with 2% human serum. IFNγ was measured in 16-24 hours by ELISA.
C) Dose-dependence of apoE.

LDL-R = test: ApoB competition at the LDL-R: DC pulsed with free GGC or apoE-GGC, activation of αGC reactive T cells; format: cell-based, human; conditions: increasing amounts of apoB
Procedure: C) Free GGC or apoE-GGC was pulsed onto DC in the presence of increasing concentrations of apoB, and the subsequent activation of αGC reactive T cells was measured. There was no effect of apoB on PHA-stimulation of T cells. All data are representative of at least three experiments.
In a second approach, advantage was taken of the fact that apoB, the primary component of LDL, also binds to the LDL-R and can serve as a competitive ligand, while not binding LRP (Beisiegel et al., Nature 341:162-4 (1989)). […] As controls, increasing amounts of apoB had no effect on the dose response to free GGC (FIG. 3C) or on the PHA induced T cell response.

CD1d-reactive T cells = test: T cell reactivity to GGC in apoE-depleted human serum; format: cell-based; conditions: compared to normal human serum
From the text: Data are means of triplicate samples +/−SEM and are representative of four independent experiments using two separate apoE depletion columns and varying doses of antigen. Statistics reflect all doses in all experiments: *p<0.001, **p<0.001, ***p<0.01.

TT-reactive clone = format: cell-based
αGC-reactive NKT cells [2] = test: Response to intravenous GGC in apoE-deficient mice (intracellular IFNγ of CD1d tetramer positive cells); format: in vivo; conditions: 200 ng GGC or 1.5 μg anti-CD3
From the text: Spleens and livers were harvested and TcRβ-positive, CD19-negative, CD1d tetramer positive cells analyzed for intracellular IFNγ production by flow cytometry.
This was not due to a nonspecific deficit of T cell reactivity, since intravenous administration of anti-CD3 antibodies activated αGC reactive T cells similarly in both apoE-deficient mice and controls. Thus, apoE plays a crucial role in the in vivo presentation of an exogenous lipid antigen.

apoE = apoE (Homo sapiens, UniProt P02649); test: ApoE-GGC binding, heparin affinity column
Sequence of apoE (P02649 19-317): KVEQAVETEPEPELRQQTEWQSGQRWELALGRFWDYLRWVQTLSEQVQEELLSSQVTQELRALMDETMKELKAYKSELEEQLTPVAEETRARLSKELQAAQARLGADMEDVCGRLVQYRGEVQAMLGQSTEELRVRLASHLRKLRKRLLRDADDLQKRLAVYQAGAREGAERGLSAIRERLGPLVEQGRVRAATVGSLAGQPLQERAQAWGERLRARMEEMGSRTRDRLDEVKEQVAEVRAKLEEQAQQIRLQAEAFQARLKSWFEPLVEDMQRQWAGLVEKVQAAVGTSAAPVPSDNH
Procedure: A) ApoE-GGC binding. […] Fractions were assayed for antigenic activity as in FIG. 1. There was no difference in non-specific loss to the column. Data are representative of at least six separate experiments.

DC = test: Rapidity of lipid antigen uptake: DC pulsed for varying times, then T cell stimulation; format: cell-based, human; conditions: free lipid in media alone
Procedure: A) ApoE enhances the efficiency of presentation of GGC. […] GGC (solid squares and striped bars) or sonicated free GGC (open triangles and open bars) was incubated with DC in serum-free media with 4 mg/ml BSA for the indicated times before washing and testing the ability to stimulate T cells as described in FIGS. 1 and 2. Upper panel: Dose response curve of GGC for 2 minute pulse. Lower panel: Various pulse times are shown for 50 ng/ml GGC.
To determine the rapidity and efficiency of lipid uptake into DC, free lipid antigen or apoE-bound lipid antigen was used to pulse DC for varying times before washing the cells and assaying their subsequent ability to present antigen to T cells.

αGC-reactive NKT cells [3] = test: Response to intravenous GGC in LDL-R deficient mice; format: in vivo; conditions: 200 ng GGC or 1.5 μg anti-CD3
Procedure: D) LDLR−/− and matched wild type controls were challenged intravenously with 200 ng GGC, 1.5 μg anti-CD3 or vehicle as described in FIG. 1D. Shown are results from spleen, with similar results in the liver. Represents two separate experiments with 10 LDLR−/− and 10 wild type mice.
Finally, the response to GGC in LDL-R deficient mice was examined. […] Thus, it was concluded that the LDL-R plays a major role in the uptake of apoE-lipid antigen complexes and presentation by CD1.

CD1c = CD1c presented antigen T cell stimulation with or without apoE; format: cell-based; conditions: versus without apoE

With Glucose monomycolate the “CD1b restricted T cell activation when complexed with apoE” value [1] was “more efficient”.
In the case of “VLDL-derived apoE: apoE derived from VLDL”, the “increase of antigenic potency of GGC” value (αGC reactive T cells) is reported as about 50 fold.
In the case of apolipoprotein B [apoB], the “effect on antigen presentation by DC pulsed with apoE-GGC” value (LDL-R) is reported as “dose-dependent diminution” and the “effect on dose response to free GGC or PHA induced T cell response” value (LDL-R) is reported as “no effect”.
For apolipoprotein E [apoE], the “capacity of serum incubated with GGC to stimulate T cells” value (CD1d-reactive T cells) was “recovered”, the “effect on control T cell stimulators (CD3, PHA or PMA/ionomycin)” value (αGC reactive T cells; increasing the concentration of apoE) was “no effect” and the “effect on MHC class II restricted response to tetanus toxoid” value (TT-reactive clone) was “no effect”.
With “galactosyl(α1-2)galactosyl ceramide [GGC]” the “response in apoE-deficient mice versus wild type controls” value (αGC-reactive NKT cells [2]) was “drastically reduced”, the “binding of GGC to apoE” value (apoE; 10 minute incubation at room temperature) was “all detectable lipid antigen remained bound to apoE” and the “GGC bound to apoE” value (apoE; in the presence of a 500-fold excess of albumin) was “greater than 95%”. For the same substance, the “time required to achieve maximal stimulation” value (DC) was 4 to 6 h, the “maximal stimulation relative to that achieved in 2 minutes with apoE” value (DC; 4-6 hours) was 48% (+/−11%) and the “response in LDL-R knockouts versus wild type controls” value (αGC-reactive NKT cells [3]) was “greatly diminished response”.
With manosyl-phosphomycoketide the “T cell stimulation by CD1c presented antigen complexed with apoE” value (CD1c) was “significantly more efficient”.
In the case of mycolic acid, the “CD1b restricted T cell activation when complexed with apoE” value [1] is reported as “more efficient”.
In the case of recombinant apoE: recombinant apoE, the “increase of antigenic potency of GGC” value (αGC reactive T cells) is reported as about 50 fold.
